Experimental data: PubChem BioAssay (NCI)
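Assay format: 96-well plates, 48-hour exposure. At the TGI there is no net growth.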

Experiments:
Experiment in all cases: DTP human tumour cell line panel, 48 h
SK-MEL-2 melanoma = system: SK-MEL-2 melanoma
T-47D breast = system: T-47D breast
XF 498 CNS = system: XF 498 CNS
HOP-92 NSCLC = system: HOP-92 NSCLC
SNB-19 CNS = system: SNB-19 CNS
CAKI-1 renal = system: CAKI-1 renal
MCF7 breast = system: MCF7 breast
SK-OV-3 ovarian = system: SK-OV-3 ovarian
SNB-75 CNS = system: SNB-75 CNS
A549 NSCLC = system: A549 NSCLC
SNB-78 CNS = system: SNB-78 CNS
NCI-H226 lung = system: NCI-H226 lung
M14 melanoma = system: M14 melanoma
OVCAR-8 ovarian = system: OVCAR-8 ovarian
MDA-MB-435 = system: MDA-MB-435
MDA-MB-231 breast = system: MDA-MB-231 breast
HOP-62 NSCLC = system: HOP-62 NSCLC
OVCAR-4 ovarian = system: OVCAR-4 ovarian
BT-549 breast = system: BT-549 breast
ACHN renal = system: ACHN renal
PC-3 prostate = system: PC-3 prostate
NCI/ADR-RES ovarian = system: NCI/ADR-RES ovarian
M19-MEL melanoma = system: M19-MEL melanoma
SN12C renal = system: SN12C renal
SK-MEL-28 melanoma = system: SK-MEL-28 melanoma
KM20L2 colon = system: KM20L2 colon
786-0 renal = system: 786-0 renal
UACC-257 melanoma = system: UACC-257 melanoma
HT29 colon = system: HT29 colon
DMS 273 small cell lung = system: DMS 273 small cell lung
SF-268 CNS = system: SF-268 CNS
A498 renal = system: A498 renal
RXF-631 renal = system: RXF-631 renal
NCI-H23 lung = system: NCI-H23 lung
SF-539 CNS = system: SF-539 CNS
NCI-H460 lung = system: NCI-H460 lung
HS 578T breast = system: HS 578T breast
UACC-62 melanoma = system: UACC-62 melanoma
KM12 colon = system: KM12 colon
MALME-3M melanoma = system: MALME-3M melanoma
MDA-N = system: MDA-N
CCRF-CEM leukemia = system: CCRF-CEM leukemia
DLD-1 colon = system: DLD-1 colon
UO-31 renal = system: UO-31 renal
HL-60(TB) leukemia = system: HL-60(TB) leukemia
IGROV1 ovarian = system: IGROV1 ovarian
TK-10 renal = system: TK-10 renal
OVCAR-3 ovarian = system: OVCAR-3 ovarian
NCI-H522 lung = system: NCI-H522 lung
HCC-2998 colon = system: HCC-2998 colon
HOP-18 NSCLC = system: HOP-18 NSCLC
LOX IMVI melanoma = system: LOX IMVI melanoma
SF-295 CNS = system: SF-295 CNS
SK-MEL-5 melanoma = system: SK-MEL-5 melanoma
SR leukemia = system: SR leukemia
OVCAR-5 ovarian = system: OVCAR-5 ovarian
HCT-15 colon = system: HCT-15 colon
MOLT-4 leukemia = system: MOLT-4 leukemia
DU-145 prostate = system: DU-145 prostate
U251 CNS = system: U251 CNS
COLO 205 colon = system: COLO 205 colon
RXF 393 renal = system: RXF 393 renal
EKVX NSCLC = system: EKVX NSCLC
RPMI-8226 leukemia = system: RPMI-8226 leukemia
DMS 114 small cell lung = system: DMS 114 small cell lung
HCT-116 colon = system: HCT-116 colon
K-562 leukemia = system: K-562 leukemia
SW-620 colon = system: SW-620 colon
LXFL 529 NSCLC = system: LXFL 529 NSCLC

CC1(C)CC(Nc2ccc(Nc3ccccc3)cc2)CC(C)(C)N1
TGI (SK-MEL-2 melanoma): 52.9 µM
TGI (T-47D breast): 37.5 µM
TGI (XF 498 CNS): > 54.2 µM
TGI (HOP-92 NSCLC): 33.9 µM
TGI (SNB-19 CNS): > 80.7 µM
TGI (CAKI-1 renal): 53.1 µM
TGI (MCF7 breast): 33.5 µM
TGI (SK-OV-3 ovarian): > 100 µM
TGI (SNB-75 CNS): > 100 µM
TGI (A549 NSCLC): > 86.2 µM
TGI (SNB-78 CNS): > 100 µM
TGI (NCI-H226 lung): 40.8 µM
TGI (M14 melanoma): 34.7 µM
TGI (OVCAR-8 ovarian): 66.3 µM
TGI (MDA-MB-435): 33.6 µM
TGI (MDA-MB-231 breast): 32.4 µM
TGI (HOP-62 NSCLC): 77.3 µM
TGI (OVCAR-4 ovarian): 61.9 µM
TGI (BT-549 breast): 27 µM
TGI (ACHN renal): 37.2 µM
TGI (PC-3 prostate): 32.3 µM
TGI (NCI/ADR-RES ovarian): 66.9 µM
TGI (M19-MEL melanoma): > 94.2 µM
TGI (SN12C renal): 80.6 µM
TGI (SK-MEL-28 melanoma): 33.8 µM
TGI (KM20L2 colon): > 78.6 µM
TGI (786-0 renal): 49.2 µM
TGI (UACC-257 melanoma): 23.9 µM
TGI (HT29 colon): 50.7 µM
TGI (DMS 273 small cell lung): > 100 µM
TGI (SF-268 CNS): > 85.4 µM
TGI (A498 renal): 55.3 µM
TGI (RXF-631 renal): > 31.6 µM
TGI (NCI-H23 lung): 63.7 µM
TGI (SF-539 CNS): 41.9 µM
TGI (NCI-H460 lung): 64 µM
TGI (HS 578T breast): 48.8 µM
TGI (UACC-62 melanoma): 28.1 µM
TGI (KM12 colon): 71.2 µM
TGI (MALME-3M melanoma): 35.8 µM
TGI (MDA-N): 32.7 µM
TGI (CCRF-CEM leukemia): 29.9 µM
TGI (DLD-1 colon): > 100 µM
TGI (UO-31 renal): 24.6 µM
TGI (HL-60(TB) leukemia): 19.2 µM
TGI (IGROV1 ovarian): 78.6 µM
TGI (TK-10 renal): 48.5 µM
TGI (OVCAR-3 ovarian): 41.8 µM
TGI (NCI-H522 lung): 26.6 µM
TGI (HCC-2998 colon): 32.7 µM
TGI (HOP-18 NSCLC): > 100 µM
TGI (LOX IMVI melanoma): 43.1 µM
TGI (SF-295 CNS): > 95.3 µM
TGI (SK-MEL-5 melanoma): 30.5 µM
TGI (SR leukemia): 50.2 µM
TGI (OVCAR-5 ovarian): > 63.1 µM
TGI (HCT-15 colon): 70.4 µM
TGI (MOLT-4 leukemia): 53.7 µM
TGI (DU-145 prostate): 61.1 µM
TGI (U251 CNS): 40.1 µM
TGI (COLO 205 colon): 32.5 µM
TGI (RXF 393 renal): 47.5 µM
TGI (EKVX NSCLC): 81.4 µM
TGI (RPMI-8226 leukemia): 37.3 µM
TGI (DMS 114 small cell lung): 42.9 µM
TGI (HCT-116 colon): 62.3 µM
TGI (K-562 leukemia): 39.2 µM
TGI (SW-620 colon): 49 µM
TGI (LXFL 529 NSCLC): > 56.8 µM
